Laboratory results reported in publication PMC8473292 (Viruses, 2021).
pIC50: −log10 of the molar value. Counter-ions that a name gives are not always drawn. Like-named read-outs stand apart in the source and are kept apart here.

Assays:
wild-type PEDV = experiment: Confirmation of anti-PEDV activity with wild-type PEDV by TCID50 in Vero cells; type: cell-based, Porcine epidemic diarrhea virus (PEDV); conditions: wild-type PEDV MOI 0.01, Vero cells, TCID50 and IFA; antioxidants 2.5, 5, 10 μM; NAC 50, 100, 200 μM
rPEDV-NLuc = experiment: microbe, parasite or virus in culture; type: cell-based, Porcine epidemic diarrhea virus (PEDV) YN150 strain; conditions: for pIC50: Vero cells, rPEDV-NLuc MOI 0.01, 1 h pre-treatment, 1.25-10 μM, NLuc activity at 20 h post-infection; for SI: selective index from CC50 and IC50
PEDV-induced ROS = experiment: Detection of PEDV-induced intracellular ROS production with DCFH-DA; type: cell-based; conditions: 10 μM, wild-type PEDV MOI 0.01, Vero cells, 16 h post-infection
in vitro = conditions: African green monkey
[1] = Porcine epidemic diarrhea virus, Vero

Molecule | pIC50 (rPEDV-NLuc; [1]) | SI (rPEDV-NLuc) | CC50 (in vitro) [µM] | pIC50 (rPEDV-NLuc; read-out: IC50) | CC50 (Vero cells; Vero cells, MTT assay) [µM] | further results
CC(=O)N[C@@H](CS)C(=O)O [NAC, N-acetyl-L-cysteine] |  |  |  |  |  | inhibition of PEDV replication, dose dependence (wild-type PEDV): exhibited anti-PEDV activity in a dose-dependent manner
O=c1ccc2cc(O)c(O)cc2o1 [Esculetin] | 5.22 | >16.75 | > 100 |  |  | DCFH-DA fluorescence in PEDV-infected cells (fluorescence microscopy) (PEDV-induced ROS): only a few fluorescence signals were detected
COc1ccc2c(c1)[nH]c1c(C)nccc12 [Harmine hydrochloride] | 5.88 | >75.04 | > 100 |  |  | 
Tannic acid |  | >22.89 |  | 5.36 | > 100 | 
C[C@H](CCC(=O)O)[C@H]1CC[C@H]2[C@@H]3CC[C@@H]4C[C@H](O)CC[C@]4(C)[C@H]3CC[C@]12C [Lithocholic acid] | 5.63 | >42.12 | > 100 |  |  | DCFH-DA fluorescence in PEDV-infected cells (fluorescence microscopy) (PEDV-induced ROS): only a few fluorescence signals were detected
C=C1C(=O)[C@]23[C@H](O)[C@H]1CC[C@H]2[C@@]12CO[C@]3(O)[C@@H](O)[C@@H]1C(C)(C)CC[C@@H]2O [Oridonin] | 5.52 |  | 35 |  |  | 
COc1cc(/C=C/c2ccc(O)c(O)c2)cc(OC)c1 [3′-Hydroxypterostilbene] |  | >23.29 |  | 5.37 | > 100 | 
CC(Cc1ccc(O)c(O)c1)C(C)Cc1ccc(O)c(O)c1 (centres unmarked) [Nordihydroguaiaretic acid] |  | >19.99 |  | 5.30 | > 100 | DCFH-DA fluorescence in PEDV-infected cells (fluorescence microscopy) (PEDV-induced ROS): only a few fluorescence signals were detected
C=CC(C)(C)c1cc(/C=C/C(=O)c2ccc(O)cc2)c(OC)cc1O [Licochalcone A] |  | >25 |  | 5.40 | > 100 | 
Cc1cc2c(C(C)C)c(O)c(O)c(C=O)c2c(O)c1-c1c(C)cc2c(C(C)C)c(O)c(O)c(C=O)c2c1O [gossypol-Acetic acid] | 5.54 | >30 | > 100 |  |  | 
CCc1c2c(nc3ccccc13)-c1cc3c(c(=O)n1C2)COC(=O)[C@]3(O)CC [7-Ethylcamptothecin] |  | >80 |  | > 5.90 | > 100 | 
CC[C@]12C=CCN3CC[C@]4(C(=C(C(=O)OC)C1)Nc1ccccc14)[C@@H]32.Cl [Tabersonine hydrochloride] |  | 19.23 |  | 5.37 | 82.6 | 
C=C(C)[C@@H]1CC[C@]2(C(=O)O)CC[C@]3(C)[C@H](CC[C@@H]4[C@@]5(C)CCC(=O)C(C)(C)[C@@H]5CC[C@]43C)[C@@H]12 [Betulonic acid] |  | >49.52 |  | > 5.90 | 61.9 | DCFH-DA fluorescence in PEDV-infected cells (fluorescence microscopy) (PEDV-induced ROS): only a few fluorescence signals were detected
CC1=C(C(=O)OCCN(Cc2ccccc2)c2ccccc2)C(c2cccc([N+](=O)[O-])c2)C(P2(=O)OCC(C)(C)CO2)=C(C)N1 (centres unmarked) [Efonidipine, reference compound] | 5.25 | >17.93 | > 100 |  |  | 
COc1cc(O)cc(O)c1C(=O)/C=C/c1ccccc1 [(E)-Cardamonin] |  | >46.44 |  | 5.67 | > 100 | 
O=C(/C=C/c1ccc(O)c(O)c1)OCCc1ccccc1 [Caffeic Acid Phenethyl Ester] | 5.76 | >57.63 | > 100 |  |  | DCFH-DA fluorescence in PEDV-infected cells (fluorescence microscopy) (PEDV-induced ROS): only a few fluorescence signals were detected
Cc1cc(O)c2c(c1)C(=O)c1cc(O)cc(O)c1C2=O [Emodin] | 5.68 | >50 | > 100 |  |  | 
C[C@H]1[C@H](C)CC[C@]2(C(=O)O)CC[C@]3(C)C(=CC[C@@H]4[C@@]5(C)CCC(=O)C(C)(C)[C@@H]5CC[C@]43C)[C@H]12 [Ursonic acid] | 5.67 | 19.23 | 41 |  |  | DCFH-DA fluorescence in PEDV-infected cells (fluorescence microscopy) (PEDV-induced ROS): only a few fluorescence signals were detected
C[C@@]1(C(=O)O)CC[C@]2(C)CC[C@]3(C)C4=CC(=O)c5c(cc(O)c(O)c5C=O)[C@]4(C)CC[C@@]3(C)[C@@H]2C1 [Demethylzeylasteral] |  | 16.27 |  | 5.63 |  | CC50 (Vero cells): 38.6 µM
C=CC1=C(C)c2cc3[nH]c(cc4nc(cc5[nH]c(cc1n2)c(C)c5CCC(=O)O)C(CCC(=O)O)=C4C)c(C)c3C=C [Protoporphyrin IX] | > 5.90 | >80 | > 100 |  |  | 
C[C@@H]1[C@H](O)[C@@H](C)/C=C/C=C/C=C/C=C/C=C/C=C/C=C/[C@H](O[C@@H]2O[C@H](C)[C@@H](O)[C@H](N)[C@@H]2O)C[C@@H]2O[C@](O)(C[C@@H](O)C[C@@H](O)[C@H](O)CC[C@@H](O)C[C@@H](O)CC(=O)O[C@H]1C)C[C@H](O)[C@H]2C(=O)O [Amphotericin B, reference compound] | 5.54 | >34.42 | > 100 |  |  | 
COc1ccc2c(c1)[nH]c1c(C)nccc12 [Harmine] |  | >51.10 |  |  |  | pIC50 (rPEDV-NLuc): 5.71
Tubeimoside I |  | 17.76 |  | 5.38 |  | CC50 (Vero cells): 74.8 µM
